From US20080200439A1, “Methods and compositions for modulating BK channel activity and vasodilation” (University of Tennessee Research Foundation, priority 2006, published 2008) come the findings set out here.

In the assay the test system is pressurized cerebral arteries from β1-knockout (KCNMB1-knockout) mice. Put plainly: Artery diameter measurement, pressurized cerebral arteries from BK β1-knockout mice. The arrangement: species or system mouse. The settings on record: 55 nM. How it is done: Artery Diameter Measurement. Middle cerebral arteries were isolated from adult male Sprague-Dawley rats (=250 g) or 8- to 12-week-old β1-knockout and C57BL/6 control mice. Rats and mice were decapitated using a guillotine and sharp scissors, respectively. These procedures were approved by the Institutional Animal Care and Use Committee from The University of Tennessee Health Science Center, an AMLAC-accredited institution. Pressurization of arteries was performed as described (Liu et al., 2004). Endothelium was removed by passing an air bubble into the vessel lumen for 90 sec. Diameter changes were monitored through an inverted microscope (Nikon Eclipse TS100, Nikon Corp., Tokyo, Japan), recorded on camera (Sanyo VCB-3512T, Sanyo Electric Corp., Japan), and transferred to a computer. Diameter data were acquired and analyzed using IonWizard 4.4 software (IonOptics Corp., Milton, Mass., United States of America). […]
Data Analysis. […] Arterial diameter and electrophysiological data were analyzed with IonWizard 4.4 (IonOptics Corp., Milton, Mass., United States of America) and pCLAMP 8.0 (Molecular Devices, Union City, Calif., United States of America). […]
To determine the impact of LC targeting of BK β1-subunits on organ function, LC action on the arterial diameter of pressurized cerebral arteries was evaluated from β1-knockout vs. wt C57BU6 mice (controls). […]

For the substance “iberiotoxin (QFTDVDCSVSKECWSVCKDLFGVDRGKCMGKKCRCYQ; UniProt P24663 1-37, looked up) [Ibtx, reference compound]”, the Decrease in diameter is −2.25±0.44%.
